Measurements published in US20230414629A1, “MATERIALS AND METHODS OF TREATING CANCER” (MONOPTEROS THERAPEUTICS, INC., priority 2020, published 2023).
Entries after “also recorded” stand apart in the source; their conditions may differ. Values belong to the compound of their own block, whether it stands above or below them.

Tests used:
[1] = pKa; format: physicochemical
[2] = system: D4M.3A tumor; test: Tumor growth in D4M.3A tumor-bearing C57/BL6 mice, oral dosing; format: in vivo; settings: 64 mg/kg orally once per day for 20 days
Description: (§1) A high volume of distribution (Vss 22.6 l/kg) was observed. […] MPT-0118 is quickly distributed from the plasma to the tissue compartment, which reduces the risk for depletion of circulating Tregs. The high volume of distribution and accumulation of MPT-0118 in tumor tissue broadens the therapeutic window for cancer therapy.

[3] = Serum IgE and IgG in dogs dosed daily for 28 days; format: in vivo; settings: 10-30 mg/kg daily for 28 days
Description: Whole venous blood samples of approximately 1 mL were collected from a peripheral vein of all animals on day 0 and on day 28 of the treatment period for determination of IgG and IgE concentrations. Test samples were diluted and incubated in the microtiter wells for 45 minutes alongside dog IgG or IgE standards. The microtiter wells were subsequently washed and HRP conjugate is added and incubated for 45 minutes. IgG or IgE molecules are thus sandwiched between the immobilization and detection antibodies. The wells were then washed to remove unbound HRP-labeled antibodies and TMB reagent was added and incubated for 20 minutes at room temperature. […] Color development is stopped by the addition of Stop Solution, changing the color to yellow, and optical density is measured spectrophotometrically at 450 nm. The concentration of IgG or IgE is proportional to the optical density of the test sample and is derived from a standard curve.

[4] = Plasma pharmacokinetics in C57/BL6 mice; format: in vivo
Description: as §1, with “observed. […] The tumor concentrations in this experiment were above 3 μM for a 24-hour period, which is a required dose for an anti-tumor effect in patient-derived tumor spheroids as shown in FIG. 9.” for “observed.”

[5] = system: patient-derived tumor spheroids; test: Anti-tumor effect in patient-derived tumor spheroids; format: cell-based
[6] = Tumor pharmacokinetics in D4M.3A tumor-bearing C57/BL6 mice; format: in vivo; settings: 64 mg/kg PO once per day, after 20 days of dosing, for a 24-hour period
Description: as §1, with “observed. […] The tumor concentrations in this experiment were above 3 μM for a 24-hour period, which is a required dose for an anti-tumor effect in patient-derived tumor spheroids as shown in FIG. 9.” for “observed.”

[7] = system: D4M.3A tumor; test: D4M.3A syngeneic tumors in C57BL/6J mice, I.P. monotherapy and combination with anti-PD-1; format: in vivo
Description: One million cells of D4M.3A tumor were injected subcutaneously into the right hind flank of C57BL/6J mice.
Anti-PD-1 Antibody dosing was 10 μL/g animal weight for 3 doses on first, third and fifth treatment day.
Measurement of tumor volume (L×W2)/2 was done by caliper. Longest tumor diameter becomes length. Width is perpendicular to length. Volume=(width2×length)/2.

[8] = system: circulating regulatory T cells (Tregs); test: Circulating Tregs in rats under continuous oral dosing (flow cytometry); format: in vivo; settings: 15 and 30 mg/kg oral, days 0 through 14
Description: Animals: Harlan Sprague Dawley rats (Hsd:SD) rats were procured through Envigo (Indianapolis, IN). Rats were individually housed in an Optirat carousel with a filtered air supply (Animal Care Systems, Inc. [Centennial, CO]). Rats were fed Teklad rodent diet (Cat. #2020X) and bedded with Teklad ⅛th inch corncob bedding.
Blood sampling: After a 72-hour acclimation period, Rats were randomized into (3) groups of 5 rats each (Day −1). Blood samples were taken on days: −1, 3, 5, 7, 10, and 14. Blood sampling was conducted by inserting a 22 g PinPort injector (Cat. #PNP3M) on the pinport and drawing 200 μL of catheter Loc solution using a 1 mL syringe. The syringe was discarded and a new 1 mL syringe was used to draw approximately 300 μL of whole blood. Whole blood was expelled into 1.7 mL K2EDTA coated tubes and inverted 3× and put at 4 C until processing for flow cytometry. A syringe with Catheter Loc solution (Heparin/Glycerol Loc solution, Cat. #HGS-5 [Braintree Scientific]) was placed on a new PinPort injector and 200 μL of catheter loc solution was added. […]
Flow cytometry: Following red blood cell lysis (BD Pharm Lyse, Cat. #555899, Lot #9311388), rat blood samples were stained with near-IR fixable viability dye (1:3000 dilution, Invitrogen, Cat. #L34960 H, Lot #2159963) for 30 minutes at room temperature. […] Data was analyzed with FlowJo (BD, v10.6.2).

[9] = in vivo; cited from earlier work

pKa [1]: < 5
Compound: CO[C@@H](C)c1c(NC(=O)Nc2cnc(-n3nccn3)c(Cl)c2)cnc2cc(Cl)nn12 [Example-10]

pKa [1]: 6.5
Compound: CO[C@@H](C)c1c(NC(=O)Nc2cnc(-n3nccn3)c(C(F)(F)F)c2)cnc(N)c1Br [Compound-139]

pKa [1]: 9.2
Vd ([4]; C57/BL6, mouse, single dose 16 mg/kg IV, plasma over 8 hours, read-out: volume of distribution (Vss)): 22.6 L/kg
bioavailability ([4]; mouse, in vivo, po): 25 to 35%
tumor concentrations [6]: above 3 μM
Compound: CN1CCC[C@H](CN2c3ccccc3Sc3ccccc32)C1 [(S)-mepazine]
tumor growth inhibition [2]: significant tumor growth inhibition
serum levels of IgE [3]: not negatively impact; also recorded: did not increase; also recorded: did not decrease
serum levels of IgG [3]: not negatively impact; also recorded: did not increase; also recorded: did not decrease
required dose for an anti-tumor effect in patient-derived tumor spheroids [5]: 3 µM
tumor volume ([7]; combination therapy: 32 mg/kg I.P. once per day with anti-PD-1 antibody): significant reduction in tumor volume; also recorded: reduced tumor volume
tumor volume ([7]; monotherapy, 32 mg/kg I.P. once per day, from day 9): reduced tumor volume
average percent of circulating regulatory T cells (Tregs) [8]: no effect; also recorded: did not deplete

Compound: CO[C@@H](C)c1c(NC(=O)Nc2ccnc(C(F)(F)F)c2)cnc2cc(Cl)nn12 [MLT-943]
serum IgE [9]: increased
